Data published in ChEMBL document CHEMBL3272271, “Folate antagonists. 13. 2,4-Diamino-6-](alpha,alpha,alpha-trifluoro-m-tolyl)thio]quinazoline and related 2,4-diamino-6-[(phenyl- and naphthyl)thio]quinazolines, a unique class of antimetabolites with extraordinary antimalarial and antibacterial effects” (J Med Chem, 1978).
Converted amounts (≈) assume the structure as drawn. The source made the active and inactive calls. The calls are words filed in the database; no cut-off is given here.

What was measured:
[1] = test system: Plasmodium gallinaceum; assay: Antimalarial activity against trophozoite-induced Plasmodium gallinaceum infected in white leghorn chicken assessed as increase in mean survival days of host at 40 mg/kg, sc administered 72 hrs after infection relative to control; type: functional; conditions: route subcutaneous
[2] = test system: Plasmodium berghei; assay: Antimalarial activity against Plasmodium berghei infected in mouse assessed as disease cure from parasite infection at 640 mg/kg, sc administered 72 hrs after infection; type: functional, organism-based; parameters: dose 640 mg/kg
[3] = test system: Plasmodium gallinaceum; assay: Antimalarial activity against trophozoite-induced Plasmodium gallinaceum infected in white leghorn chicken assessed as increase in mean survival days of host at 5 mg/kg, sc administered 72 hrs after infection relative to control; type: functional; conditions: route subcutaneous
[4] = test system: Plasmodium berghei; assay: Antimalarial activity against Plasmodium berghei infected in mouse assessed as increase in mean survival days of host at 40 mg/kg, sc administered 72 hrs after infection relative to control; type: functional; conditions: route subcutaneous
[5] = test system: Plasmodium gallinaceum; assay: Antimalarial activity against trophozoite-induced Plasmodium gallinaceum infected in white leghorn chicken assessed as increase in mean survival days of host at 1.25 mg/kg, sc administered 72 hrs after infection relative to control; type: functional; conditions: route subcutaneous
[6] = test system: Plasmodium berghei; assay: Antimalarial activity against Plasmodium berghei infected in mouse assessed as increase in mean survival days of host at 20 mg/kg, sc administered 72 hrs after infection relative to control; type: functional; conditions: route subcutaneous
[7] = test system: Plasmodium gallinaceum; assay: Antimalarial activity against trophozoite-induced Plasmodium gallinaceum infected in white leghorn chicken assessed as increase in mean survival days of host at 2.5 mg/kg, sc administered 72 hrs after infection relative to control; type: functional; conditions: route subcutaneous
[8] = test system: Plasmodium gallinaceum; assay: Antimalarial activity against trophozoite-induced Plasmodium gallinaceum infected in white leghorn chicken assessed as increase in mean survival days of host at 0.63 mg/kg, sc administered 72 hrs after infection relative to control; type: functional; conditions: route subcutaneous
[9] = test system: Enterococcus faecalis; assay: Antibacterial activity against Streptococcus faecalis MGH-2 by gradient plate test; type: functional
[10] = test system: Plasmodium gallinaceum; assay: Antimalarial activity against trophozoite-induced Plasmodium gallinaceum infected in white leghorn chicken assessed as increase in mean survival days of host at 20 mg/kg, sc administered 72 hrs after infection relative to control; type: functional; conditions: route subcutaneous
[11] = test system: Plasmodium gallinaceum; assay: Antimalarial activity against sporozoite-induced Plasmodium gallinaceum infected in white leghorn chicken assessed as disease cure from parasite infection at 80 mg/kg, sc administered 72 hrs after infection; type: functional, organism-based; parameters: dose 80 mg/kg
[12] = test system: Plasmodium gallinaceum; assay: Antimalarial activity against sporozoite-induced Plasmodium gallinaceum infected in white leghorn chicken assessed as increase in mean survival days of host at 10 mg/kg, sc administered 72 hrs after infection relative to control; type: functional; conditions: route subcutaneous
[13] = test system: Gallus gallus; assay: Toxicity in trophozoite-induced Plasmodium gallinaceum infected white leghorn chicken assessed as mortality at 320 mg/kg, sc administered 72 hrs after infection measured after 48 hrs; type: organism-based; parameters: dose 320 mg/kg, route subcutaneous; conditions: in vivo
[14] = test system: Plasmodium gallinaceum; assay: Antimalarial activity against trophozoite-induced Plasmodium gallinaceum infected in white leghorn chicken assessed as increase in mean survival days of host at 80 mg/kg, sc administered 72 hrs after infection relative to control; type: functional; conditions: route subcutaneous
[15] = test system: Plasmodium berghei; assay: Antimalarial activity against Plasmodium berghei infected in mouse assessed as disease cure from parasite infection at 320 mg/kg, sc administered 72 hrs after infection; type: functional, organism-based; parameters: dose 320 mg/kg
[16] = test system: Gallus gallus; assay: Toxicity in sporozoite-induced Plasmodium gallinaceum infected white leghorn chicken assessed as mortality at 80 mg/kg, sc administered 72 hrs after infection measured up to 6 days; type: organism-based; parameters: dose 80 mg/kg, route subcutaneous; conditions: in vivo
[17] = test system: Shigella sonnei; assay: Antibacterial activity against Shigella sonnei C-10 by gradient plate test; type: functional
[18] = test system: Pseudomonas aeruginosa; assay: Antibacterial activity against Pseudomonas aeruginosa 28 by gradient plate test; type: functional
[19] = test system: Plasmodium berghei; assay: Antimalarial activity against Plasmodium berghei infected in mouse assessed as increase in mean survival days of host at 80 mg/kg, sc administered 72 hrs after infection relative to control; type: functional; conditions: route subcutaneous
[20] = test system: Gallus gallus; assay: Toxicity in sporozoite-induced Plasmodium gallinaceum infected white leghorn chicken assessed as mortality at 160 mg/kg, sc administered 72 hrs after infection measured up to 6 days; type: organism-based; parameters: dose 160 mg/kg, route subcutaneous; conditions: in vivo
[21] = test system: Plasmodium berghei; assay: Antimalarial activity against Plasmodium berghei infected in mouse assessed as disease cure from parasite infection at 160 mg/kg, sc administered 72 hrs after infection; type: functional, organism-based; parameters: dose 160 mg/kg
[22] = test system: Plasmodium berghei; assay: Antimalarial activity against trophozoite-induced Plasmodium berghei infected in mouse assessed as daily dose required to suppression of 90% parasite infection administered with diet for 6 days; type: functional
[23] = test system: Plasmodium gallinaceum; assay: Antimalarial activity against sporozoite-induced Plasmodium gallinaceum infected in white leghorn chicken assessed as disease cure from parasite infection at 20 mg/kg, sc administered 72 hrs after infection; type: functional, organism-based; parameters: dose 20 mg/kg
[24] = test system: Plasmodium berghei; assay: Ratio of quinine hydrochloride SD90 to compound SD90 for trophozoite-induced Plasmodium berghei infected in mouse assessed as daily dose required to suppression of 90% parasite infection administered with diet for 6 days; type: functional
[25] = test system: Plasmodium gallinaceum; assay: Antimalarial activity against sporozoite-induced Plasmodium gallinaceum infected in white leghorn chicken assessed as increase in mean survival days of host at 40 mg/kg, sc administered 72 hrs after infection relative to control; type: functional; conditions: route subcutaneous
[26] = test system: Escherichia coli; assay: Antibacterial activity against Escherichia coli Vogel by gradient plate test; type: functional
[27] = test system: Mus musculus; assay: Toxicity in Plasmodium berghei infected mouse assessed as mortality at 640 mg/kg, sc administered 72 hrs after infection measured after 2 to 5 days; type: organism-based; parameters: dose 640 mg/kg, route subcutaneous; conditions: in vivo
[28] = test system: Plasmodium gallinaceum; assay: Antimalarial activity against trophozoite-induced Plasmodium gallinaceum infected in white leghorn chicken assessed as increase in mean survival days of host at 10 mg/kg, sc administered 72 hrs after infection relative to control; type: functional; conditions: route subcutaneous
[29] = test system: Plasmodium gallinaceum; assay: Antimalarial activity against sporozoite-induced Plasmodium gallinaceum infected in white leghorn chicken assessed as disease cure from parasite infection at 320 mg/kg, sc administered 72 hrs after infection; type: functional, organism-based; parameters: dose 320 mg/kg
[30] = test system: Plasmodium gallinaceum; assay: Antimalarial activity against sporozoite-induced Plasmodium gallinaceum infected in white leghorn chicken assessed as increase in mean survival days of host at 80 mg/kg, sc administered 72 hrs after infection relative to control; type: functional; conditions: route subcutaneous
[31] = test system: Staphylococcus aureus; assay: Antibacterial activity against drug-resistant Staphylococcus aureus S18713 by gradient plate test; type: functional
[32] = test system: Plasmodium gallinaceum; assay: Antimalarial activity against trophozoite-induced Plasmodium gallinaceum infected in white leghorn chicken assessed as disease cure from parasite infection at 160 mg/kg, sc administered 72 hrs after infection; type: functional, organism-based; parameters: dose 160 mg/kg
[33] = test system: Plasmodium gallinaceum; assay: Antimalarial activity against trophozoite-induced Plasmodium gallinaceum infected in white leghorn chicken assessed as increase in mean survival days of host at 160 mg/kg, sc administered 72 hrs after infection relative to control; type: functional; conditions: route subcutaneous
[34] = test system: Staphylococcus aureus; assay: Antibacterial activity against Staphylococcus aureus UC-96 by gradient plate test; type: functional
[35] = test system: Plasmodium berghei; assay: Antimalarial activity against Plasmodium berghei infected in mouse assessed as increase in mean survival days of host at 10 mg/kg, sc administered 72 hrs after infection relative to control; type: functional; conditions: route subcutaneous
[36] = test system: Plasmodium berghei; assay: Antimalarial activity against Plasmodium berghei infected in mouse assessed as increase in mean survival days of host at 160 mg/kg, sc administered 72 hrs after infection relative to control; type: functional; conditions: route subcutaneous
[37] = test system: Plasmodium gallinaceum; assay: Antimalarial activity against sporozoite-induced Plasmodium gallinaceum infected in white leghorn chicken assessed as disease cure from parasite infection at 40 mg/kg, sc administered 72 hrs after infection; type: functional, organism-based; parameters: dose 40 mg/kg
[38] = test system: Plasmodium gallinaceum; assay: Antimalarial activity against sporozoite-induced Plasmodium gallinaceum infected in white leghorn chicken assessed as increase in mean survival days of host at 5 mg/kg, sc administered 72 hrs after infection relative to control; type: functional; conditions: route subcutaneous
[39] = test system: Plasmodium gallinaceum; assay: Antimalarial activity against sporozoite-induced Plasmodium gallinaceum infected in white leghorn chicken assessed as disease cure from parasite infection at 160 mg/kg, sc administered 72 hrs after infection; type: functional, organism-based; parameters: dose 160 mg/kg
[40] = test system: Plasmodium gallinaceum; assay: Antimalarial activity against sporozoite-induced Plasmodium gallinaceum infected in white leghorn chicken assessed as increase in mean survival days of host at 20 mg/kg, sc administered 72 hrs after infection relative to control; type: functional; conditions: route subcutaneous
[41] = test system: Gallus gallus; assay: Toxicity in sporozoite-induced Plasmodium gallinaceum infected white leghorn chicken assessed as mortality at 320 mg/kg, sc administered 72 hrs after infection measured up to 6 days; type: organism-based; parameters: dose 320 mg/kg, route subcutaneous; conditions: in vivo

Cc1cccc(Sc2ccc3nc(N)nc(N)c3c2)c1
MST [1]: 6.4 days | Activity [2]: Active | MST [3]: 0 days | MST [4]: 6.7 days | MST [5]: 0 days | MST [6]: 2.3 days | MST [7]: 0 days | MST [8]: 0 days | MIC [9]: < 0.25 µg/mL | MST [10]: 6.2 days | Activity [11]: Active | MST [12]: 1.8 days | Activity [13]: Toxic | MST [14]: 7.8 days | Activity [15]: Active | Activity [16]: Toxic | MIC [17]: 1.5 µg/mL (≈ 5.31 µM) | MIC [18]: > 25 µg/mL | MST [19]: 7.7 days | Activity [20]: Toxic | Activity [21]: Active | SD90 [22]: 6.2 mg/kg/day | Activity [23]: Active | Ratio [24]: 12 | MST [25]: 1.7 days | MIC [26]: < 0.25 µg/mL | Activity [27]: Toxic | MST [28]: 6 days | Activity [29]: Active | MST [30]: 4.7 days | MIC [31]: < 0.25 µg/mL | Activity [32]: Active | MST [33]: 10.7 days | MIC [34]: < 0.25 µg/mL | MST [35]: 2.4 days | MST [36]: 12.7 days | Activity [37]: Active | MST [38]: 0.3 days | Activity [39]: Active | MST [40]: 3.8 days | Activity [41]: Toxic
